Assay results as given in patent US20250221410A1, “SUBSTITUTED 2-C-AZINES AND SALTS THEREOF, AND USE THEREOF AS HERBICIDAL ACTIVE SUBSTANCES” (BAYER AKTIENGESELLSCHAFT, priority 2022, published 2025).

How the values were obtained:
Assay type in all cases: in vivo
POLCO = test: Pre-emergence herbicide efficacy at 80 g/ha, POLCO; settings: Polygonum convolvulus, scored visually after about 3 weeks
How it was run: (§1)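 Percent activity (0% = as controls, 100% = plants dead) was read visually around 3 weeks post-treatment. Treatment: covering soil of sown pots sprayed with compound suspension or emulsion, 0.5% additive, water rate equal to 600 l/ha; pots then held in greenhouse.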

POAAN: Poa annua = test: Pre-emergence herbicide efficacy at 1280 g/ha, POAAN; settings: visual scoring after about 3 weeks vs untreated controls
How it was run: (§2)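 Compound applied pre-emergence in WP or EC form to the covering soil over sown seeds, in aqueous spray with 0.5% additive (600 L/ha water). After greenhouse culture for about 3 weeks, damage is rated visually from 0% (as control) to 100% (plants dead).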

[1] = tested on: ALOMY: Alopecurus myosuroides; test: Pre-emergence herbicide efficacy at 1280 g/ha, ALOMY; settings: visual scoring after about 3 weeks vs untreated controls
How it was run: as §2

VIOTR: Viola tricolor = test: Pre-emergence herbicide efficacy at 80 g/ha, VIOTR; settings: scored visually after about 3 weeks
Text: (§3) Seeds of monocotyledonous and dicotyledonous weed plants and crop plants were placed in plastic or organic planting pots and covered with soil. The compounds of the invention, formulated in the form of wettable powders (WP) or as emulsion concentrates (EC), were then applied to the surface of the covering soil as aqueous suspension or emulsion with addition of 0.5% additive at a water application rate equivalent to 600 l/ha. After the treatment, the pots were placed in a greenhouse and kept under good growth conditions for the test plants. After about 3 weeks, the efficacy of the preparations was scored visually in comparison with untreated controls as percentages. For example, 100% activity=the plants have died, 0% activity=like control plants. Tables D1 to D12 below show the effects of selected compounds of the general formula (I) according to Table 1 on various harmful plants and an application rate corresponding to 80 g/ha, which were obtained by the experimental procedure mentioned above.

[2] = tested on: ALOMY: Alopecurus myosuroides; test: Post-emergence herbicidal efficacy at 1280 g/ha, ALOMY; settings: rated visually after about 3 weeks vs untreated controls, 100% = plants have died, 0% = like control plants
Experimental: (§4) Seeds of mono- and dicotyledonous weed plants were placed in plastic pots in sandy loam soil (doubly sown with in each case one species of mono- or dicotyledonous weed plants per pot), covered with soil and cultivated in a greenhouse under controlled growth conditions. 2 to 3 weeks after sowing, the test plants were treated at the one-leaf stage. The compounds of the invention, formulated in the form of wettable powders (WP) or as emulsion concentrates (EC), were applied to the green parts of the plants as aqueous suspension or emulsion with addition of 0.5% additive at a water application rate equivalent to 600 litres per hectare. After the test plants had been kept in the greenhouse under optimum growth conditions for about 3 weeks, the activity of the preparations was rated visually in comparison to untreated controls. For example, 100% activity=the plants have died, 0% activity=like control plants. Tables A1 to A12 below show the effects of selected compounds of the general formula (I) according to Table 1 on various harmful plants and at an application rate corresponding to 1280 g/ha, which were obtained by the trial procedure specified above.

[3] = tested on: AMARE: Amaranthus retroflexus; test: Post-emergence herbicidal efficacy at 80 g/ha, AMARE; settings: visual rating about 3 weeks after treatment vs untreated controls
How it was run: (§5)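 Visual percent activity versus untreated plants (100% = plants died) was scored roughly 3 weeks after treatment. Plants grew in greenhouse pots of sandy loam and got a post-emergence spray at one-leaf stage: WP or EC compound with 0.5% additive, 600 l/ha water.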

STEME: Stellaria media = test: Pre-emergence herbicide efficacy at 1280 g/ha, STEME; settings: visual scoring vs untreated controls
How it was run: as §2

[4] = tested on: DIGSA: Digitaria sanguinalis; test: Pre-emergence herbicide efficacy at 1280 g/ha, DIGSA; settings: visual scoring after about 3 weeks vs untreated controls
How it was run: as §2

VERPE: Veronica persica = test: Post-emergence herbicidal efficacy at 80 g/ha, VERPE; settings: visual rating about 3 weeks after treatment vs untreated controls
How it was run: as §5

[5] = tested on: ABUTH: Abutilon theophrasti; test: Pre-emergence herbicide efficacy at 80 g/ha, ABUTH; settings: scored visually after about 3 weeks
How it was run: as §1

KCHSC: Kochia scoparia = test: Pre-emergence herbicide efficacy at 1280 g/ha, KCHSC; settings: visual scoring after about 3 weeks vs untreated controls
How it was run: as §2

[6] = tested on: ALOMY: Alopecurus myosuroides; test: Pre-emergence herbicide efficacy at 80 g/ha, ALOMY; settings: scored visually after about 3 weeks
Text: as §3

[7] = tested on: DIGSA: Digitaria sanguinalis; test: Post-emergence herbicidal efficacy at 1280 g/ha, DIGSA; settings: rated visually after about 3 weeks vs untreated controls, 100% = plants have died, 0% = like control plants
How it was run: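 Visual damage rating was made roughly 3 weeks after treatment, relative to untreated plants, on a scale where 0% means no effect and 100% means plants died. Foliar application was at the one-leaf stage as an aqueous WP/EC spray with 0.5% additive at 600 L/ha water, on greenhouse-grown pot plants.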

[8] = tested on: DIGSA: Digitaria sanguinalis; test: Pre-emergence herbicide efficacy at 80 g/ha, DIGSA; settings: scored visually after about 3 weeks
How it was run: as §1

LOLRI: Lolium rigidum = test: Post-emergence herbicidal efficacy at 1280 g/ha, LOLRI; settings: visual rating about 3 weeks after treatment vs untreated controls
Experimental: as §4

[9] = tested on: MATIN: Matricaria inodora; test: Post-emergence herbicidal efficacy at 1280 g/ha, MATIN; settings: visual rating about 3 weeks after treatment vs untreated controls
Experimental: as §4

[10] = tested on: ABUTH: Abutilon theophrasti; test: Post-emergence herbicidal efficacy at 80 g/ha, ABUTH; settings: rated visually after about 3 weeks vs untreated controls, 100% = plants have died, 0% = like control plants
Experimental: Seeds of monocotyledonous and dicotyledonous weeds and crop plants were placed in sandy loam in plastic or organic planting pots, covered with soil and cultivated in a greenhouse under controlled growth conditions. 2 to 3 weeks after sowing, the test plants were treated at the one-leaf stage. The compounds of the invention, formulated in the form of wettable powders (WP) or as emulsion concentrates (EC), were then sprayed onto the green parts of the plants as aqueous suspension or emulsion with addition of 0.5% additive at a water application rate of 600 l/ha (converted). After the test plants had been kept in the greenhouse under optimum growth conditions for about 3 weeks, the activity of the preparations was rated visually in comparison to untreated controls. For example, 100% activity=the plants have died, 0% activity=like control plants. Tables B1 to B10 below show the effects of selected compounds of the general formula (I) according to Table 1 on various harmful plants and an application rate corresponding to 80 g/ha, which were obtained by the experimental procedure mentioned above.

Which “Pre-emergence efficacy against POLCO in %” value (POLCO) does the source give for `Fc1cnc(Oc2cccc(Br)c2Cc2ncc(Cl)cn2)nc1` [Example 1-54] here?
Its value is 80%.

And the “Pre-emergence efficacy against POAAN” value (POAAN: Poa annua)?
Its value is 100%.

And the “Pre-emergence efficacy against ALOMY” value [1]?
The value was 90%.

What about the “Pre-emergence efficacy against VIOTR in %” value (VIOTR: Viola tricolor) of the same compound?
Its value is 100%.

What about the “Post-emergence efficacy at 1280 g/ha against ALOMY in %” value [2] of the same compound?
Its value is 90%.

What about the “Post-emergence efficacy against AMARE” value [3] of the same compound?
Its value is 100%.

And the “Pre-emergence efficacy against STEME in %” value (STEME: Stellaria media)?
Its value is 100%.

What about the “Pre-emergence efficacy against DIGSA” value [4] of the same compound?
The value was 100%.

What about the “Post-emergence efficacy against VERPE” value (VERPE: Veronica persica) of the same compound?
The value was 100%.

And the “Pre-emergence efficacy against ABUTH in %” value [5]?
Its value is 100%.

What about the “Pre-emergence efficacy against KCHSC” value (KCHSC: Kochia scoparia) of the same compound?
Its value is 100%.

What about the “Pre-emergence efficacy against ALOMY in %” value [6] of the same compound?
Its value is 80%.

What about the “Post-emergence efficacy at 1280 g/ha against DIGSA in %” value [7] of the same compound?
The value was 90%.

And the “Pre-emergence efficacy against DIGSA in %” value [8]?
The value was 100%.

Which results are given for `Clc1cnc(Cc2c(Cl)cccc2Oc2ncc(Cl)cn2)nc1` [Example 1-56]?
Pre-emergence efficacy against POLCO in % (POLCO): 90%; Pre-emergence efficacy against POAAN (POAAN: Poa annua): 100%; Pre-emergence efficacy against ALOMY [1]: 100%; Pre-emergence efficacy against VIOTR in % (VIOTR: Viola tricolor): 100%; Post-emergence efficacy against AMARE [3]: 100%; Pre-emergence efficacy against STEME in % (STEME: Stellaria media): 100%; Pre-emergence efficacy against DIGSA [4]: 100%; Post-emergence efficacy against VERPE (VERPE: Veronica persica): 100%; Pre-emergence efficacy against ABUTH in % [5]: 100%; Pre-emergence efficacy against KCHSC (KCHSC: Kochia scoparia): 100%; Post-emergence efficacy against LOLRI (LOLRI: Lolium rigidum): 90%; Post-emergence efficacy at 1280 g/ha against DIGSA in % [7]: 90%; Pre-emergence efficacy against DIGSA in % [8]: 100%

With `N#Cc1cccc(Oc2ncc(F)cn2)c1Cc1ncc(Cl)cn1` [Example 1-59] as the compound, how does the “Pre-emergence efficacy against POLCO in %” value (POLCO) read?
Its value is 90%.

What about the “Pre-emergence efficacy against POAAN” value (POAAN: Poa annua) of the same compound?
Its value is 100%.

What about the “Pre-emergence efficacy against ALOMY” value [1] of the same compound?
The value was 100%.

And the “Pre-emergence efficacy against VIOTR in %” value (VIOTR: Viola tricolor)?
Its value is 100%.

What about the “Post-emergence efficacy against AMARE” value [3] of the same compound?
The value was 100%.

And the “Pre-emergence efficacy against STEME in %” value (STEME: Stellaria media)?
Its value is 100%.

What about the “Pre-emergence efficacy against DIGSA” value [4] of the same compound?
Its value is 100%.

What about the “Post-emergence efficacy against VERPE” value (VERPE: Veronica persica) of the same compound?
Its value is 90%.

And the “Pre-emergence efficacy against ABUTH in %” value [5]?
Its value is 100%.

What about the “Post-emergence efficacy against MATIN” value [9] of the same compound?
The value was 100%.

And the “Pre-emergence efficacy against KCHSC” value (KCHSC: Kochia scoparia)?
Its value is 100%.

What about the “Pre-emergence efficacy against ALOMY in %” value [6] of the same compound?
Its value is 80%.

What about the “Post-emergence efficacy at 1280 g/ha against DIGSA in %” value [7] of the same compound?
The value was 100%.

What about the “Pre-emergence efficacy against DIGSA in %” value [8] of the same compound?
Its value is 100%.

What does the source list for `FC(F)c1cc(-c2ccccc2Cc2ncc(Cl)cn2)on1` [Example 1-133]?
Pre-emergence efficacy against POLCO in % (POLCO): 80%; Pre-emergence efficacy against POAAN (POAAN: Poa annua): 100%; Pre-emergence efficacy against ALOMY [1]: 100%; Post-emergence efficacy at 80 g/ha against ABUTH in % [10]: 80%; Pre-emergence efficacy against VIOTR in % (VIOTR: Viola tricolor): 80%; Post-emergence efficacy at 1280 g/ha against ALOMY in % [2]: 90%; Post-emergence efficacy against AMARE [3]: 100%; Pre-emergence efficacy against STEME in % (STEME: Stellaria media): 100%; Pre-emergence efficacy against DIGSA [4]: 100%; Post-emergence efficacy against VERPE (VERPE: Veronica persica): 100%; Pre-emergence efficacy against ABUTH in % [5]: 100%; Pre-emergence efficacy against KCHSC (KCHSC: Kochia scoparia): 100%; Post-emergence efficacy against LOLRI (LOLRI: Lolium rigidum): 100%; Post-emergence efficacy at 1280 g/ha against DIGSA in % [7]: 100%; Pre-emergence efficacy against DIGSA in % [8]: 100%
